The results in this text go back to ChEMBL document CHEMBL5126528, “Recent strategies targeting Embryonic Ectoderm Development (EED) for cancer therapy: Allosteric inhibitors, PPI inhibitors, and PROTACs” (Eur J Med Chem, 2022).

Molecules are shown by their SMILES. ≈ marks a conversion by molar mass, not a printed value.

In data set [1] the target is T1, Polycomb protein EED (Homo sapiens, UniProt O75530). Nature of the data set: Inhibition of EED (unknown origin).
A short description of data set [2]: Inhibition of FITC-labeled EZH2 (39 to 63 residues) (unknown origin)/N-terminal 6x His-tagged human EED protein interaction by incubated for 2 hrs FP-based competitive assay.
For the next data set, the species on record is Homo sapiens. Nature of the data set: Inhibition of GST-tagged EZH2/FLAG-tagged EED (unknown origin) protein protein interaction at 100 uM incubated for 1 hr by AlphaLISA method relative to control. Background: In Alpha technology, singlet oxygen from a donor bead excites a nearby acceptor bead.
Data set [3] in a line: Inhibition of PRC2 (unknown origin). Also noted: species or system Homo sapiens.
Data set [4] is described as follows: Solubility of the compound at pH 7.4. The following applies: buffer. Format: physicochemical.
The target in data set [5] is T1, Polycomb protein EED. Nature of the data set: Binding affinity to EED (unknown origin) assessed as dissociation constant.
The target in data set [6] is T1, Polycomb protein EED. In words: Inhibition of human EED (76 to 441 residues) expressed in Escherichia coli strain BL21(DE3) by alpha screen assay.
A further data set has as its system Pfeiffer. Nature of the data set: Antiproliferative activity against human Pfeiffer cells treated for 14 days. Format: functional, cell-based. Particulars: 336 h.
A further data set deals with KARPAS-422. Nature of the data set: Antiproliferative activity against human KARPAS-422 cells treated for 11 days. Format: functional, cell-based. The following applies: KARPAS-422, 264 h.
Data set [7] has as its target T1, Polycomb protein EED. In words: Binding affinity to EED (unknown origin) assessed as dissociation constant by SPR analysis. (SPR reads the build-up and loss of mass on a sensor chip optically.)
Data set [8] can be described thus: Inhibition of EZH2-EED (unknown origin) protein interaction by FP binding assay. Details: species or system Homo sapiens.
Data set [9] in a line: Binding affinity to EZH2-EED (unknown origin) protein interaction assessed as inhibition constant by FP binding assay. Also noted: species or system Homo sapiens.
Data set [10] in a line: Antiproliferative activity against human ARCaPE cells expressing sh Ctrl. Particulars: ARCaP.
The test system of the next data set is LNCaP C4-2. Nature of the data set: Antiproliferative activity against human LNCaP C4-2 cells.
The test system of data set [11] is LNCaP C4-2B. Nature of the data set: Antiproliferative activity against human LNCaP C4-2B cells.
Data set [12] relates to LNCaP C4-2B. Nature of the data set: Antiproliferative activity against human LNCaP C4-2B cells expressing TaxR.
Data set [13] is described as follows: Antiproliferative activity against human ARCaP cells expressing sh RNA EPLIN.
A short description of data set [14]: Inhibition of GST-tagged EZH2/FLAG-tagged EED (unknown origin) protein protein interaction incubated for 1 hr by AlphaLISA method. Details: species or system Homo sapiens.
A short description of data set [15]: Inhibition of PRC2 HMTase activity in human G-401 cells using nucleosome core particles as substrate in presence of activation peptide H3K27me3 (21 to 44 residues).
The nature of data set [16]: Oral bioavailability in CD-1 mouse. Format: ADME, organism-based. Particulars: in vivo.

T1 sequence (O75530 whole entry, the tested form may be a part): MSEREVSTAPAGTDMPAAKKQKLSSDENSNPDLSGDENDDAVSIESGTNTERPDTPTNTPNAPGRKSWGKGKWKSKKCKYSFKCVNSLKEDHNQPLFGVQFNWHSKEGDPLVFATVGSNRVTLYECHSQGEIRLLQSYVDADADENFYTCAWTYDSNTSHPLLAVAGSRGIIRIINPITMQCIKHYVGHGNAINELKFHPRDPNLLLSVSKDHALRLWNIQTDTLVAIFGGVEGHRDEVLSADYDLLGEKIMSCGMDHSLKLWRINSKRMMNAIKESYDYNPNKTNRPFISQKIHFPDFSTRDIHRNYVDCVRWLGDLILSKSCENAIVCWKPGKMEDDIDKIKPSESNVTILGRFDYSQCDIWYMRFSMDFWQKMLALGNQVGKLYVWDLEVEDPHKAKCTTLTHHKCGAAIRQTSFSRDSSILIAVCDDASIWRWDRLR

Consider `Cc1ncccc1-c1cnc(NCC2Cc3cc(F)ccc3O2)c2cncnc12` (configuration not stated), for which, on Polycomb protein EED [1], the concentration for half-maximal inhibition (IC50) was less than 100 nM.
On to `Cc1ccc(C(C2=C(O)CC(C)(C)CC2=O)C2C(=O)CC(C)(C)CC2=O)s1` (configuration not stated), for which, in [2], the IC50 is 63.8 µM.
In the data set filed under Homo sapiens, `O=C(CC1S/C(=N\c2ccccc2F)N(Cc2ccc3c(c2)OCO3)C1=O)Nc1ccc(C(=O)O)cc1` (configuration not stated) had an inhibition of 49%.
As to `Cc1ncccc1-c1cnc(NCc2c(F)cc(O)c3c2CCO3)n2cnnc12`, it took 15 nM to reach half-maximal inhibition in data set [3] (IC50). For the same compound, the solubility in data set [4] came to 5 µM (≈ 1.96 µg/mL).
Regarding `Cc1nc(NCc2cccc3c2OCO3)sc1-c1ccn(C)n1`, the Kd at Polycomb protein EED [5] turned out to be 5.2 µM. The compound also showed an IC50 on Polycomb protein EED [6] of 2.1 µM.
In the case of `CS(=O)(=O)N1CC=C(c2cnc(NCC3Cc4cc(F)ccc4O3)n3cnnc23)CC1` (configuration not stated), the IC50 was 1 nM in the data set on Pfeiffer, 13 nM in the data set on KARPAS-422 and less than 20 nM against Polycomb protein EED [1].
In data set [3], `Cc1ncccc1-c1cnc(NCc2c(F)ccc3c2CCO3)n2cnnc12` returned an IC50 of 5 nM. Moreover, the Kd on Polycomb protein EED [7] amounted to 0.4 nM.
Turning to `Cc1ncccc1-c1cnc(NCC2Cc3cc(F)ccc3O2)n2cc(C#N)nc12` (configuration not stated), on Polycomb protein EED [1], the IC50 was less than 100 nM.
In data set [2], `COc1ccc(CCN2CCC(Nc3nc4ccccc4n3Cc3ccc(F)cc3)CC2)cc1` [ASTEMIZOLE] gave a 50% inhibitory concentration (IC50) of 93.8 µM.
In the case of `CN1CC=C(c2cnc(NCC3Cc4cc(F)ccc4O3)n3cnnc23)CC1` (configuration not stated), the IC50 in the data set with Pfeiffer was 2 nM; in the data set with KARPAS-422, 2.8 nM; against Polycomb protein EED [1], less than 20 nM.
Take `COC(=O)C1=C(C)NC(C)=C(C(=O)OC)C1c1ccccc1[N+](=O)[O-]` [NIFEDIPINE]: the IC50 in [8] was 343 µM. Besides, the Ki in data set [9] worked out at 66.6 µM.
In turn, `CCCCC1C(=O)N(c2ccccc2)N(c2ccc(O)cc2)C1=O` (configuration not stated) [OXYPHENBUTAZONE ANHYDROUS] returned an IC50 in data set [8] of 229 µM. The Ki in [9] turned out to be 44.5 µM.
Regarding `Cc1ncccc1-c1sc(NCc2c(F)ccc3c2CCO3)nc1C`, the Kd at Polycomb protein EED [5] worked out at 3.7 µM. In addition, the IC50 against Polycomb protein EED [6] came to 5.6 µM.
Take `Cc1ncccc1-c1cnc(NCc2c(F)cc(C#N)c3c2CCO3)n2cnnc12`: 102 nM corresponded to half-maximal inhibition in [3] (IC50). In data set [4], this compound yielded a solubility of 3 µM (≈ 1.2 µg/mL). The Kd on Polycomb protein EED [7] is 15 nM.
On to `CCOP(=O)(OCC)C(NC(=O)[C@H](Cc1ccc(-c2ccccc2)cc1)NC(=O)/C=C/c1ccc(-c2ccccc2)cc1)P(=O)(OCC)OCC`, for which the 50% inhibitory concentration (IC50) is 64.9 µM in [10]; 56.1 µM in the data set on LNCaP C4-2; 91.1 µM in the data set on LNCaP C4-2B [11]; 6.87 µM with LNCaP C4-2B [12]; 260 nM in [13].
Regarding `CC(=O)N1CC=C(c2cnc(NCC3Cc4cc(F)ccc4O3)n3cnnc23)CC1` (configuration not stated), the values for the IC50 in the data set on Pfeiffer, with KARPAS-422 and against Polycomb protein EED [1] were 0.7 nM, 7 nM and less than 20 nM, respectively.
In data set [14], `CCOc1ccc(C(=O)CSc2nnc(-c3ccc(O)cc3)c(-c3ccc(O)cc3)n2)cc1NC(=O)CC` displayed a concentration for half-maximal inhibition (IC50) of 64 µM.
In the case of `Cc1ncccc1-c1cnc(NCc2c(F)cc(Cl)c3c2CCO3)n2cnnc12`, in [3], 16 nM corresponded to half-maximal inhibition (IC50). Besides, the solubility in data set [4] worked out at 0.2 µM (≈ 0.0822 µg/mL). In addition, on Polycomb protein EED [7], the Kd worked out at 2.4 nM.
At Polycomb protein EED [1], `CN1CC=C(c2cnc(NCC3Cc4cc(F)ccc4O3)c3cncnc23)CC1` (configuration not stated) had an IC50 of less than 100 nM.
Turning to `CS(=O)(=O)c1ccc(-c2cnc(NCc3ccco3)n3cnnc23)cc1`, the IC50 turned out to be 20 nM on Polycomb protein EED [1] and 220 nM in [15]. In [16], this compound displayed an F of 10%.

Broadly, the IC50 is the concentration that inhibits the measured activity by half. Usually inhibition stands for the percentage by which the read-out fell short of the control. A high value points to a response far below the control. Usually solubility stands for the dissolved amount per volume that the medium holds. As a reminder, the Kd is a measure of binding affinity in units of concentration. As usually defined, the Ki is a measure of affinity in units of concentration, obtained from inhibition or displacement.
